Measured values taken from US4734420A, “Anti-hypertensive agents” (priority 1980, dated 1988).
Values belong to the compound of their own block, whether it stands above or below them.

Assays:
ACE [1] = details: statement of belief; cited from earlier work
ACE [2] = details: oral, most patients; cited from earlier work
Human urinary ACE = Human urinary ACE (Homo sapiens, UniProt P12821); assay: biochemical; details: read-out: I50 value
From the text: The role of ACE in the pathogenesis of hypertension has prompted a search for inhibitors of the enzyme that could act as antihypertensive drugs. See for example U.S. Pat. Nos. 3,891,616, 3,947,575, 4,052,511 and 4,053,651. […]. No. 4,046,889 to Ondetti et al., issued Sept. 6, 1977, and in scientific articles by Cushman, D. W. et al., Biochemistry 16, 5484 (1977), and by Ondetti, M. et al., Science 196, 441 (1977). […]. These factors include the source of enzyme, its purity, the substrate used and its concentration, and the composition of the assay buffer. All I50 data reported herein have been performed with the same assay system and same enzyme (human urinary ACE) and with an approximately 1/2 Km level of substrate and are therefore internally consistent. Discrepancies with data obtained by other workers may be observed. Indeed such discrepancies do exist in the literature, for unknown reasons. See, for example, the I50 values for BPP9a reported by Cushman, D. W., et al., Experientia 29, 1032 (1973) and by Dorer, F. E., et al., Biochim. Biophys. Acta 429, 220 (1976).
The inhibitory potency of N^α -[3-(L-α-glutamylthio)-2-D-methyl-propanoyl]-L-proline in vitro was measured in the following assay. […] The enzyme was assayed in 0.05M Hepes buffer, pH 8.0 containing 0.1M NaCl and 0.75M Na2 SO4. […]

Human urinary ACE, sequence (P12821 30-1232 limits assumed): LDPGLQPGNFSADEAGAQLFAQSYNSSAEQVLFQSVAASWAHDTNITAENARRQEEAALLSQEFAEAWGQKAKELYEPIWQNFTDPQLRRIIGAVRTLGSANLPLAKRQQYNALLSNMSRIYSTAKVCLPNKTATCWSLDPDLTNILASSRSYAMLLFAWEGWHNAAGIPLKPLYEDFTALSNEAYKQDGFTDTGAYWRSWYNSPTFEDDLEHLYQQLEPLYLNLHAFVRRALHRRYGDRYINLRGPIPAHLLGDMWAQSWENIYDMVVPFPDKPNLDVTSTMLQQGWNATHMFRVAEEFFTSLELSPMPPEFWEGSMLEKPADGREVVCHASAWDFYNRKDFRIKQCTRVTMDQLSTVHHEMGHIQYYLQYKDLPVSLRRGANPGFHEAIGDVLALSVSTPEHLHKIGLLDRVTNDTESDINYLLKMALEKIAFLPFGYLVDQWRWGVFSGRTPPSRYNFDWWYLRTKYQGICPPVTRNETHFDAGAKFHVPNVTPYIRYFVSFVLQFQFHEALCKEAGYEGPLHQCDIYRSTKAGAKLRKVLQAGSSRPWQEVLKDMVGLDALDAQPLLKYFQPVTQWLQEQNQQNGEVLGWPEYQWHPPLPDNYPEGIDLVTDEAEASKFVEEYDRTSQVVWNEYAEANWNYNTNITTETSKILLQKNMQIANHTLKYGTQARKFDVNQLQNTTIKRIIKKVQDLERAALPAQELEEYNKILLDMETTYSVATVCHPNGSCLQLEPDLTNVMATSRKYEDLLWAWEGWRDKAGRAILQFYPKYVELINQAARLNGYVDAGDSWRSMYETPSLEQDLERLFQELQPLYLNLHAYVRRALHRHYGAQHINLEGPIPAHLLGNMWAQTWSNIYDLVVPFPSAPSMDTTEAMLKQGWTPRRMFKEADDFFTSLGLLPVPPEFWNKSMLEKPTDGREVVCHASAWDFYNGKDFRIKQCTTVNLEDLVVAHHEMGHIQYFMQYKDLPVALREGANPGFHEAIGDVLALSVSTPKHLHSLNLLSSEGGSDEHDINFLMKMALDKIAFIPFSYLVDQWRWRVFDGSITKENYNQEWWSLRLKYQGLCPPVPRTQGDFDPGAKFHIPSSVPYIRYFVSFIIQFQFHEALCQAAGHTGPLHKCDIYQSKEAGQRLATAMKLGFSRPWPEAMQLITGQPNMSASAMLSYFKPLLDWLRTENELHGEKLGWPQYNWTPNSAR

Structure (SMILES): C[C@H](CSSC[C@@H](C)C(=O)N1CCC[C@H]1C(=O)O)C(=O)N1CCC[C@H]1C(=O)O [disulfide]
- inhibitory activity of disulfide (dimer of SQ14225) (ACE [1]): largely inactive as an inhibitor

Structure (SMILES): C[C@H](CS)C(=O)N1CCCC1C(=O)O (stereo in doubt) [SQ14225, D-3-mercapto-2-methylpropanoyl-L-proline]
- stability in normal gastric and intestinal environments (ACE [2]): sufficiently stable in the normal gastric and intestinal environments of most patients

- IC50 (Human urinary ACE): 2.1 nM
Structure (SMILES): C[C@H](CSC(=O)[C@@H](N)CCC(=O)O)C(=O)N1CCC[C@H]1C(=O)O [N^α -[3-(L-α-glutamylthio)-2-D-methyl-propanoyl]-L-proline]
